Experimental findings from patent publication US9416128B2, “Fused heterocyclic compounds as ion channel modulators” (Gilead Sciences, Inc., priority 2013, dated 2016) are described below.

Like-named read-outs stand apart in the source and are kept apart here.

In assay [1] the target is wild-type human cardiac sodium channel, hNaV 1.5 (Late INa) (Homo sapiens, UniProt Q14524). In words: Late INa screening assay (whole cell patch clamp, QPatch, Tefluthrin-induced late current). It counts as cell-based. Particulars: HEK293, % inhibition (percent block of late INa) at 1 uM; HEK293 hNaV1.5; 10 μM Tefluthrin; read-out: Nav1.5 Late INa 1 uM. The protocol:
The cardiac late sodium current (Late INa) and peak sodium current (Peak INa) assays are performed on an automated electrophysiology platform, QPatch 16X or QPatch HT (Sophion Bioscience, Copenhagen, Denmark) using the whole cell patch clamp technique to measure currents through the cell membrane. The assay uses an HEK293 (human embryonic kidney) cell line heterologously expressing the wild-type human cardiac sodium channel, hNaV 1.5, purchased from Millipore (Billerica, Mass.). No beta subunits were coexpressed with the Na channel alpha subunit. Cells are maintained with standard tissue culture procedures and stable channel expression is maintained with 400 μg/mL Geneticin in the culture medium. Experiments are carried out at 23-25° C.
For both the Late INa and Peak INa assays, series resistance compensation is set to 100% and series resistance and whole-cell compensation are performed automatically. Currents are digitized at 25 kHz and low-pass filtered at 5 kHz and stored in the Sophion Bioscience Oracle database (Sophion Bioscience, Copenhagen, Denmark). Analysis is performed using QPatch Assay software and data are compiled in Excel 2010 (Microsoft, Seattle, Wash., U.S.A.).
Compound stocks are routinely made by the Gilead Sample Bank in vials to 10 mM in dimethyl sulfoxide (DMSO). In some cases, when compounds are not soluble in DMSO, they are made in 100% ethanol. Stocks are sonicated as necessary. The extracellular solution for screening Late INa is composed of: 140 mM NaCl, 4 mM KCl, 1.8 mM CaCl2, 1 mM MgCl2, 10 mM HEPES and 10 mM Dextrose with pH adjusted to 7.35 using NaOH. The intracellular solution contains: 105 mM CsF, 20 mM CsCl, 10 NaF, 2 mM EGTA, 10 mM HEPES and 10 mM Dextrose with pH adjusted to 7.35 with CsOH. Compounds are diluted in extracellular solution using a MicroLab Nimbus (Hamilton Robotics, Reno, Nev.) to between 0.3 and 3 μM in glass vials and transferred to glass well plates before robotic addition to the cells. The 0 mM Na extracellular solution (0Na-ECF) used at the end of each experiment for the Late INa and Peak INa assays to measure baseline current contains: 140 Choline-Cl; 4 mM KCl, 1.8 mM CaCl2; 1 mM MgCl2; 10 mM HEPES and 10 mM Dextrose with pH was adjusted to 7.35 with CsOH.
For the Late INa assay, sodium channels are activated every 10 seconds (0.1 Hz) by depolarizing the cell membrane to −20 mV for 250 milliseconds (ms) from a holding potential of −120 mV.
Compounds were tested to determine their activity in blocking the late sodium current. Late INa was generated by adding 10 μM Tefluthrin (pyrethroid) to the extracellular solution. For the purposes of the screening, Late INa is defined as the mean current between 240 ms and 265 ms during the voltage step to −20 mV. After establishing the whole cell recording configuration, Late INa activator is added to each well 4 times over a 15 minute period so that the late component of the Na current reaches a stable value. Compounds were then added (typically at 0.3 or 1 μM), in the presence of the Late INa activator, with 3 additions over the course of 5 minutes. Measurements were made at the end of exposure to the third compound addition and values were normalized to the current level when all Na^+ was removed from the extracellular solution after two additions of 0Na-ECF.
Results are reported as percent block of late INa and results were analyzed by incorporating rundown correction for the Late INa.

Assay [2] deals with wild-type human cardiac sodium channel, hNaV 1.5 (Peak INa) (Homo sapiens, UniProt Q14524). Briefly: Peak INa screening assay (tonic block and use-dependent block). It counts as cell-based. The protocol:
The assay uses an HEK293 (human embryonic kidney) cell line heterologously expressing the wild-type human cardiac sodium channel, hNaV 1.5, purchased from Millipore (Billerica, Mass.). No beta subunits were coexpressed with the Na channel alpha subunit. Cells are maintained with standard tissue culture procedures and stable channel expression is maintained with 400 μg/mL Geneticin in the culture medium. […] Currents are digitized at 25 kHz and low-pass filtered at 5 kHz and stored in the Sophion Bioscience Oracle database (Sophion Bioscience, Copenhagen, Denmark). Analysis is performed using QPatch Assay software and data are compiled in Excel 2010 (Microsoft, Seattle, Wash., U.S.A.). Compound stocks are routinely made by the Gilead Sample Bank in vials to 10 mM in dimethyl sulfoxide (DMSO). In some cases, when compounds are not soluble in DMSO, they are made in 100% ethanol. Stocks are sonicated as necessary. The extracellular solution for screening Late INa is composed of: 140 mM NaCl, 4 mM KCl, 1.8 mM CaCl2, 1 mM MgCl2, 10 mM HEPES and 10 mM Dextrose with pH adjusted to 7.35 using NaOH. The intracellular solution contains: 105 mM CsF, 20 mM CsCl, 10 NaF, 2 mM EGTA, 10 mM HEPES and 10 mM Dextrose with pH adjusted to 7.35 with CsOH. Compounds are diluted in extracellular solution using a MicroLab Nimbus (Hamilton Robotics, Reno, Nev.) to between 0.3 and 3 μM in glass vials and transferred to glass well plates before robotic addition to the cells. […] It is contemplated that the compounds of Formula I avoid significant block of peak INa. […] The intracellular solution used for the Peak INa assay is the same as outlined for the Late INa assay (see above). After establishing the whole cell recording configuration, channels were stimulated to open with low frequency (0.1 Hz) for so that the recording can be monitored and the extent to which the recording has stabilized can be assessed. The test compound is then applied at 1 or 3 μM was added 2 times at 60 second intervals. After the second compound addition, a 200 second wait period was imposed to allow for equilibration. Voltage protocols for TB and UDB are were performed in the absence and presence of compound and TB and UDB are calculated with respect to the compound free condition. Both TB and UDB were analyzed by incorporating rundown correction for the peak INa.

The mark [3] stands for this setting: % inhibition, use-dependent block of peak INa at 3 uM, 3 Hz, pulse 50, read-out: Nav1.5 Peak UDB 3 Hz 3 uM.
Where [4] appears, read: read-out: Nav1.5 Peak TB 3 uM, % inhibition, tonic block of peak INa at 3 uM, 0.1 Hz, holding -100 mV.

Sequence of wild-type human cardiac sodium channel, hNaV 1.5 (Late INa) (Q14524 whole entry): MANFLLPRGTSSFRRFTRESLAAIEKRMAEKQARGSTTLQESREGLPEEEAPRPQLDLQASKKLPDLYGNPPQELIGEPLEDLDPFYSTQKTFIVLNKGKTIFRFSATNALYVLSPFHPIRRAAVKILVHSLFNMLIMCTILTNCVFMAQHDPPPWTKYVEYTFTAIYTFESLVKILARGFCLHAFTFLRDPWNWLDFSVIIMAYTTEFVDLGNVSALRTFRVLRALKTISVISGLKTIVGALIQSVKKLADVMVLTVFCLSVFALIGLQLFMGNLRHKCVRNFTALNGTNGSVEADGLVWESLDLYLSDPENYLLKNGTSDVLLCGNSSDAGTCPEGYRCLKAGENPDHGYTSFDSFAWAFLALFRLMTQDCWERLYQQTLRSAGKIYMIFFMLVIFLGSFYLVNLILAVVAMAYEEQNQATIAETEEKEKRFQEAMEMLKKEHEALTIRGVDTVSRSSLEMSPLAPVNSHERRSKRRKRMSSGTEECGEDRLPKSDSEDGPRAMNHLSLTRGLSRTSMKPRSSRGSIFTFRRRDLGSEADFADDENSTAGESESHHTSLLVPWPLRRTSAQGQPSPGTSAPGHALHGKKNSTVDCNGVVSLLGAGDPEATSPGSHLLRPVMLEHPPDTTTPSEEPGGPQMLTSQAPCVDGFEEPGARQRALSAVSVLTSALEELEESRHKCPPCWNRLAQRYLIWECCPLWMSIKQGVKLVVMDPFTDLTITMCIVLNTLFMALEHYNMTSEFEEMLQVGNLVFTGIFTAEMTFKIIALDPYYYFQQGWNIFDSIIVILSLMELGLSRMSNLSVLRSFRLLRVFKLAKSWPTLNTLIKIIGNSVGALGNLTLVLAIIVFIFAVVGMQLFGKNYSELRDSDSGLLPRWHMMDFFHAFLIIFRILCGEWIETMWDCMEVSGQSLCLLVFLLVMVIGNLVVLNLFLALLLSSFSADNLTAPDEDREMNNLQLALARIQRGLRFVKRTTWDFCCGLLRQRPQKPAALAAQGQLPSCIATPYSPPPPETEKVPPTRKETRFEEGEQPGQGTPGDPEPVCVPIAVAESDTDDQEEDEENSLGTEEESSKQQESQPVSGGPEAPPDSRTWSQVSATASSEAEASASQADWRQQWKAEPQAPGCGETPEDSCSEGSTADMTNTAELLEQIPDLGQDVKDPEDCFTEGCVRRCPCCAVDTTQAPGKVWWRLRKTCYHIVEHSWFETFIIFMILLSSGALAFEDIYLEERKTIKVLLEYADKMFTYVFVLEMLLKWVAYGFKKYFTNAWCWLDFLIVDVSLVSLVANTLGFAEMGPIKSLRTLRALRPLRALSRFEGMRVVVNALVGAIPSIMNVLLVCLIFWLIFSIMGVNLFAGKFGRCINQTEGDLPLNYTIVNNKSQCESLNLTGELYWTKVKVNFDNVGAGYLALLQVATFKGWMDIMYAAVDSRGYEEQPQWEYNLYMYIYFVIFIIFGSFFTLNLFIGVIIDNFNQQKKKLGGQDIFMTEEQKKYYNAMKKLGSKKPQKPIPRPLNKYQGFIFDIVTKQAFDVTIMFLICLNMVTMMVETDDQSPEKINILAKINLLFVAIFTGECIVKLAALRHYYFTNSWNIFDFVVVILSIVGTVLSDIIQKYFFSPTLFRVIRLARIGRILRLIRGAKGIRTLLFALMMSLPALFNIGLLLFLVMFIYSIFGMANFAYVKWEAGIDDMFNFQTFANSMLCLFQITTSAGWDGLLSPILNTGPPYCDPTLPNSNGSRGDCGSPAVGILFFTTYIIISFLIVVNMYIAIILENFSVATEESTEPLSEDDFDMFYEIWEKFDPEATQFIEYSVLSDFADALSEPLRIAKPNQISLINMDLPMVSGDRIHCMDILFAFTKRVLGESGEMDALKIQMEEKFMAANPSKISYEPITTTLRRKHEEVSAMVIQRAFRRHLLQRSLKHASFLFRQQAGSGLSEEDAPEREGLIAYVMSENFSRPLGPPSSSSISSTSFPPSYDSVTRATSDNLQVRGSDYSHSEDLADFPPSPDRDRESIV
Sequence of wild-type human cardiac sodium channel, hNaV 1.5 (Peak INa) (Q14524 whole entry): as above

`Cc1cnc(CN2Cc3cc(-c4ccc(C(F)(F)F)cc4)ccc3OC2=O)nc1` [Example 13, 3-((5-methylpyrimidin-2-yl)methyl)-6-(4-(trifluoromethyl)phenyl)-3,4-dihydro-2H-benzo[e][1,3]oxazin-2-one]: in assay [1], the inhibition at 1 µM is 49.6%. For the same compound, the inhibition at 3 µM came out at 5.6% in assay [2] (setting [3]) and 29.4% in assay [2] (setting [4]).
For the compound `Cc1cnc(CN2Cc3cc(-c4ccc(OC(F)(F)F)cc4F)ccc3OC2=O)nc1` [Example 14, 6-(2-fluoro-4-(trifluoromethoxy)phenyl)-3-((5-methylpyrimidin-2-yl)methyl)-3,4-dihydro-2H-benzo[e][1,3]oxazin-2-one], the inhibition at 1 µM in assay [1] was found to be 39.3%. Also, the figures for the inhibition at 3 µM in assay [2] (setting [3]) and in assay [2] (setting [4]) were < 5% and 24%, respectively.
With `O=C1Oc2ccc(-c3ccc(OC(F)(F)F)cc3)cc2CN1CCc1ncccn1` [Example 16, 3-(2-(pyrimidin-2-yl)ethyl)-6-(4-(trifluoromethoxy)phenyl)-3,4-dihydro-2H-benzo[e][1,3]oxazin-2-one], in assay [1], the inhibition at 1 µM came out at 48.5%. For the same compound, the figures for the inhibition at 3 µM in assay [2] (setting [3]) and in assay [2] (setting [4]) were 5.3% and 22.1%, respectively.
For `O=C1Oc2ccc(-c3ccc(C(F)(F)F)cc3)cc2CN1CCc1ncccn1` [Example 17, 3-(2-(pyrimidin-2-yl)ethyl)-6-(4-(trifluoromethyl)phenyl)-3,4-dihydro-2H-benzo[e][1,3]oxazin-2-one] the same measures were 45%, < 5% and 12.9%.
For `COc1cc(OC(F)(F)F)ccc1-c1ccc2c(c1)CN(CCc1ncccn1)C(=O)O2` [Example 18, 6-(2-methoxy-4-(trifluoromethoxy)phenyl)-3-(2-(pyrimidin-2-yl)ethyl)-3,4-dihydro-2H-benzo[e][1,3]oxazin-2-one] the same measures were 31.4%, < 5% and 12.1%.
For `CCCOc1cc(C(F)(F)F)ccc1-c1ccc2c(c1)CN(CCc1ncccn1)C(=O)O2` [Example 19, 6-(2-propoxy-4-(trifluoromethyl)phenyl)-3-(2-(pyrimidin-2-yl)ethyl)-3,4-dihydro-2H-benzo[e][1,3]oxazin-2-one], in that order: 68%, 9.6% and 26.7%.
With `O=C1Oc2ccc(-c3ccc(OC(F)(F)F)cc3)cc2CN1Cc1ccccn1` [Example 20, 3-(pyridin-2-ylmethyl)-6-(4-(trifluoromethoxy)phenyl)-3,4-dihydro-2H-benzo[e][1,3]oxazin-2-one], the inhibition at 1 µM in assay [1] was 53.7%. In addition, the results for the inhibition at 3 µM in assay [2] (setting [3]) and in assay [2] (setting [4]) were 5.1% and 32.8%, respectively.
Turning to `O=C1Oc2ccc(-c3ccc(OC(F)(F)F)cc3F)cc2CN1Cc1ccccn1` [Example 21, 6-(2-fluoro-4-(trifluoromethoxy)phenyl)-3-(pyridin-2-ylmethyl)-3,4-dihydro-2H-benzo[e][1,3]oxazin-2-one], the inhibition at 1 µM in assay [1] was 44.7%. The inhibition at 3 µM was < 5% in assay [2] (setting [3]) and 23% in assay [2] (setting [4]).
On to `COc1cc(OC(F)(F)F)ccc1-c1ccc2c(c1)CN(Cc1ccccn1)C(=O)O2` [Example 22, 6-(2-methoxy-4-(trifluoromethoxy)phenyl)-3-(pyridin-2-ylmethyl)-3,4-dihydro-2H-benzo[e][1,3]oxazin-2-one], for which, in assay [1], the inhibition at 1 µM was found to be 48.3%. The values for the inhibition at 3 µM in assay [2] (setting [3]) and in assay [2] (setting [4]) were < 5% and 24.9%, respectively.
For `Cc1cc(OC(F)(F)F)ccc1-c1ccc2c(c1)CN(Cc1ccccn1)C(=O)O2` [Example 23, 6-(2-methyl-4-(trifluoromethoxy)phenyl)-3-(pyridin-2-ylmethyl)-3,4-dihydro-2H-benzo[e][1,3]oxazin-2-one], in that order: 30.5%, < 5% and 19.4%.
For `O=C1Oc2ccc(-c3ccc(C(F)(F)F)cc3)cc2CN1Cc1ccccn1` [Example 24, 3-(pyridin-2-ylmethyl)-6-(4-(trifluoromethyl)phenyl)-3,4-dihydro-2H-benzo[e][1,3]oxazin-2-one], in that order: 55.8%, 5.9% and 28.5%.
With `CC(C)Oc1cc(C(F)(F)F)ccc1-c1ccc2c(c1)CN(Cc1ncccn1)C(=O)O2` [Example 25, 6-(2-isopropoxy-4-(trifluoromethyl)phenyl)-3-(pyrimidin-2-ylmethyl)-3,4-dihydro-2H-benzo[e][1,3]oxazin-2-one], the inhibition at 1 µM in assay [1] worked out at 54%. Also, the inhibition at 3 µM was < 5% in assay [2] (setting [3]) and 29.7% in assay [2] (setting [4]).
Take `O=C1Oc2ccc(-c3ccc4c(c3)OC(F)(F)O4)cc2CN1Cc1ncccn1` [Example 26, 6-(2,2-difluorobenzo[d][1,3]dioxol-5-yl)-3-(pyrimidin-2-ylmethyl)-3,4-dihydro-2H-benzo[e][1,3]oxazin-2-one]: the inhibition at 1 µM in assay [1] was 35.2%. In addition, the inhibition at 3 µM is < 5% in assay [2] (setting [3]) and 20.7% in assay [2] (setting [4]).
For `CCCOc1cc(C(F)(F)F)ccc1-c1ccc2c(c1)CN(Cc1ncccn1)C(=O)O2` [Example 27, 6-(2-propoxy-4-(trifluoromethyl)phenyl)-3-(pyrimidin-2-ylmethyl)-3,4-dihydro-2H-benzo[e][1,3]oxazin-2-one], in that order: 60.1%, 8.1% and 32%.
For `CCCOc1cc(OC(F)(F)F)ccc1-c1ccc2c(c1)CN(Cc1ncccn1)C(=O)O2` [Example 28, 6-(2-propoxy-4-(trifluoromethoxy)phenyl)-3-(pyrimidin-2-ylmethyl)-3,4-dihydro-2H-benzo[e][1,3]oxazin-2-one], in that order: 45.4%, 6.9% and 12.9%.
